Data set [1] has as its target BACE1 (Homo sapiens, UniProt P56817). The experiment in a line: In vitro enzymatic BACE FRET (fluorescence resonance energy transfer) assay. Type of data set: biochemical. To be noted: read-out: BACE 1 FRET assay. The method in brief: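 Cleavage of a quenched peptide FRET substrate (50 nM) in 0.05 M acetate pH 4.2, 10% DMSO, 100 uM genapol, 1 h incubation. Reaction stopped by Tris neutralization; fluorescence read at excitation 488 nm / […].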

Data set [2] concerns Cells stably expressing Amyloid Precursor Protein (APP). The experiment in a line: In vitro BACE cell-based assay (HEK cell assay): Aβ40 in conditioned medium by sandwich ELISA. The note with it: Homo sapiens, HEK293. Put shortly:
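APP-stably-expressing cells were grown 24 h in DMEM/10% FBS, then treated for 24 h with 10-point doses starting at 100 μM or 10 μM, at 0.1% DMSO final. Aβ40 in conditioned medium was measured by sandwich ELISA (pAb40 capture, biotinylated 6E10 detection, europium time-resolved fluorescence); IC50 from percent inhibition.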
In general terms: ELISA stands for enzyme-linked immunosorbent assay.

Data set [3] addresses CYP3A4 (CYP3A) (Homo sapiens, UniProt P08684). The experiment in a line: CYP3A inhibition assay (midazolam, pooled human liver microsomes). The note with it: human, pooled human liver microsomes, pH 7.4, probe midazolam (printed as about […]); read-out: 3A4 IC50. Type of data set: in vitro ADME. A general note: Liver microsomes are a subcellular fraction often used to study metabolism.

Data set [4] can be described thus: Microsomal stability assay, human liver microsomes. Type of data set: in vitro ADME. An excerpt:
(§1) Microsomal Stability Assay

The nature of data set [5]: Microsomal stability assay, rat liver microsomes. Type of data set: in vitro ADME.
Description: as §1

CYP3A4 (CYP3A), sequence (P08684 2-503): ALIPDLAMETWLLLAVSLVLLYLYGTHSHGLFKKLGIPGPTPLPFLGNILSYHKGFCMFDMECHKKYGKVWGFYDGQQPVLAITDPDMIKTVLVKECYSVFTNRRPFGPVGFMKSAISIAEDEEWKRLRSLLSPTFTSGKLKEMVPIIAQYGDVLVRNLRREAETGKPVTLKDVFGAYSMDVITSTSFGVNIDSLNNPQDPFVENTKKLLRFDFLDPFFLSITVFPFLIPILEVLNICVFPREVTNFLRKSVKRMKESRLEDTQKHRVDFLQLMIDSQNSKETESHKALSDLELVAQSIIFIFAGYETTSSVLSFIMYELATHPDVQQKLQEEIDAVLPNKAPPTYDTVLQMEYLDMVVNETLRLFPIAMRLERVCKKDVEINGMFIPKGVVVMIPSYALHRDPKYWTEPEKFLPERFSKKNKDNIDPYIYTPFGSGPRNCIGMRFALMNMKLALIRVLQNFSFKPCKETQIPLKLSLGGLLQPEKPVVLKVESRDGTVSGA
BACE1, sequence (P56817 46-501, species assumed): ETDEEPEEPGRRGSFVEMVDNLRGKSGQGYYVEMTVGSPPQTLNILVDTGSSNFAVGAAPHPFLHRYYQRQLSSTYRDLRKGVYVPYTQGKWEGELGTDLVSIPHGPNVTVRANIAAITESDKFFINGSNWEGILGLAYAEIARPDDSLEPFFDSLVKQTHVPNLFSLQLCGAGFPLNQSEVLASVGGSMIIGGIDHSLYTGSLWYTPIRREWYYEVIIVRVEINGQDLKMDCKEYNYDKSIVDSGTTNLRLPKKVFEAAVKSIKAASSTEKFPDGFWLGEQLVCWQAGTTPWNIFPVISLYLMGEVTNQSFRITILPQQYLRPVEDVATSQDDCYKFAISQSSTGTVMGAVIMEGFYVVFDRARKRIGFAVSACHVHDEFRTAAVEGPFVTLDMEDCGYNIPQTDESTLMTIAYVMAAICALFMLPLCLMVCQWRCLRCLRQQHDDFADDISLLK

For the molecule `CC[C@H](NC(C)=O)[C@H](O)CN[C@H]1CC2(CCC2)Oc2ncc(CC(C)(C)C)cc21` [compound 213], the figures for the IC50 in data set [1] and in data set [2] were 60 nM and 339 nM, respectively. Besides, the IC50 at 10 min in data set [3] stood at 27000 nM. The same molecule returned an HLM in data set [4] of 36 µL/min/mg. The same molecule came in with an RLM in data set [5] of 25 µL/min/mg.
For the molecule `C=CC[C@H](NC(=O)COC)[C@H](O)CN[C@H]1CC2(CCC2)Oc2c(Br)cc(CC(C)(C)C)cc21` [compound 214], the values for the IC50 in data set [1] and in data set [2] were 44 nM and 2170 nM, respectively. In addition, the IC50 at 10 min in data set [3] was 900 nM. This molecule registered an HLM in data set [4] of 492 µL/min/mg. Also, the RLM in data set [5] came to 247 µL/min/mg.
On the same counts, the results for `C=CC[C@H](NC(=O)COC)[C@H](O)CN[C@H]1CC2(CCC2)Oc2c(-c3nccs3)cc(CC(C)(C)C)cc21` [compound 215] are 57 nM, 838 nM, 1000 nM, 736 µL/min/mg and 551 µL/min/mg.
On the same counts, the results for `C=CC[C@H](NC(=O)COC)[C@H](O)CN[C@H]1CC2(CCC2)Oc2c(-c3cncs3)cc(CC(C)(C)C)cc21` [compound 217] are 20 nM, 920 nM, 200 nM, 551 µL/min/mg and 477 µL/min/mg.
On the same counts, the results for `C=CC[C@H](NC(=O)COC)[C@H](O)CN[C@H]1CC2(CCC2)Oc2c(-c3cnc[nH]3)cc(CC(C)(C)C)cc21` [compound 218, N-((1S)-1-((1R)-2-(((4S)-6-(2,2-dimethylpropyl)-8-(1H-imidazol-5-yl)-3,4-dihydrospiro[chromene-2,1′-cyclobutan]-4-yl)amino)-1-hydroxyethyl)-3-buten-1-yl)-2-methoxyacetamide] are 179 nM, 71 nM, 300 nM, 215 µL/min/mg and 185 µL/min/mg.
On to `C=CC[C@H](NC(=O)COC)[C@H](O)CN[C@H]1CC2(CCC2)Oc2c(-c3ccncc3)cc(CC(C)(C)C)cc21` [compound 219], for which the figures for the IC50 in data set [1] and in data set [2] were 170 nM and 249 nM, respectively. Moreover, the IC50 at 10 min in data set [3] was 100 nM. The same molecule came in with an HLM in data set [4] of 106 µL/min/mg. In addition, the RLM in data set [5] was determined as 360 µL/min/mg.
On the same counts, the results for `C=CC[C@H](NC(=O)COC)[C@H](O)CN[C@H]1CC2(CCC2)Oc2c(-c3cccnc3)cc(CC(C)(C)C)cc21` [compound 220] are 107 nM, 125 nM, 300 nM, 569 µL/min/mg and 369 µL/min/mg.
The matching figures for `C#CC[C@H](NC(=O)[C@@H](C)OC)[C@H](O)CN[C@H]1CC2(CCC2)Oc2c1cc(CC(C)(C)C)nc2NC` [compound 222]: 1220 nM, 891 nM, 1400 nM, 165 µL/min/mg and 156 µL/min/mg.
The matching figures for `CCC[C@H](NC(=O)[C@@H](C)OC)[C@H](O)CN[C@H]1CC2(CCC2)Oc2c1cc(CC(C)(C)C)nc2Cl` [compound 223, (2R)-N-((1S)-1-((1R)-2-(((4′S)-8′-chloro-6′-(2,2-dimethylpropyl)-3′,4′-dihydrospiro[cyclobutane-1,2′-pyrano[2,3-c]pyridin]-4′-yl)amino)-1-hydroxyethyl)butyl)-2-(methyloxy)propanamide]: 371 nM, 10000 nM, 3500 nM, 515 µL/min/mg and 249 µL/min/mg.
For `COC[C@H](NC(C)=O)[C@H](O)CN[C@H]1CC2(CCC2)Oc2ncc(CC(C)(C)C)cc21` [compound 225], the IC50 in data set [1] came out at 480 nM; in data set [2], 462 nM. Further, in data set [3], the IC50 at 10 min is 27000 nM. The molecule further gave an HLM in data set [4] of 40 µL/min/mg. The molecule also returned an RLM in data set [5] of 14 µL/min/mg.
The matching figures for `CCC[C@H](NC(=O)COC)[C@H](O)CN[C@H]1CC2(CCC2)Oc2c1cc(CC(C)(C)C)nc2NC` [compound 226]: 617 nM, 83 nM, 5000 nM, 161 µL/min/mg and 259 µL/min/mg.
On the same counts, the results for `CCC[C@H](NC(=O)[C@@H](C)OC)[C@H](O)CN[C@H]1CC2(CCC2)Oc2c1cc(CC(C)(C)C)nc2NC` [compound 227] are 903 nM, 163 nM, 1500 nM, 119 µL/min/mg and 212 µL/min/mg.
Turning to `CCC[C@H](NC(=O)[C@H]1CCCO1)[C@H](O)CN[C@H]1CC2(CCC2)Oc2c1cc(CC(C)(C)C)nc2NC` [compound 228, (2R)-N-((1S)-1-((1R)-2-(((4′S)-6′-(2,2-dimethylpropyl)-8′-(methylamino)-3′,4′-dihydrospiro[cyclobutane-1,2′-pyrano[2,3-c]pyridin]-4′-yl)amino)-1-hydroxyethyl)butyl)tetrahydro-2-furancarboxamide], the IC50 worked out at 627 nM in data set [1] and 781 nM in data set [2]. Besides, in data set [3], the IC50 at 10 min was found to be 1500 nM. In addition, in data set [4], the HLM is 165 µL/min/mg. The RLM in data set [5] is 345 µL/min/mg.
On the same counts, the results for `C=CC[C@H](NC(C)=O)[C@H](O)CN[C@H]1CC2(CCC2)Oc2c1cc(CC(C)(C)C)nc2Nc1ccccc1` [compound 229, N-((1S)-1-((1R)-2-(((4′S)-6′-(2,2-dimethylpropyl)-8′-(phenylamino)-3′,4′-dihydrospiro[cyclobutane-1,2′-pyrano[2,3-c]pyridin]-4′-yl)amino)-1-hydroxyethyl)-3-buten-1-yl)acetamide] are 26 nM, 987 nM, 6100 nM, 139 µL/min/mg and 150 µL/min/mg.
`C=CC[C@H](NC(=O)COC)[C@H](O)CN[C@H]1CC2(CCC2)Oc2c1cc(CC(C)(C)C)nc2Nc1ccccc1` [compound 230]: the IC50 stood at 40 nM in data set [1] and 1380 nM in data set [2]. In addition, the IC50 at 10 min in data set [3] is 3500 nM. The HLM in data set [4] came out at 345 µL/min/mg. This molecule also came in with an RLM in data set [5] of 168 µL/min/mg.
Consider `C=CC[C@H](NC(=O)COC)[C@H](O)CN[C@H]1CC2(CCC2)Oc2c(-c3ccc4c(c3)OCO4)cc(CC(C)(C)C)cc21` [compound 231, N-((1S)-1-((1R)-2-(((4S)-8-(1,3-benzodioxol-5-yl)-6-(2,2-dimethylpropyl)-3,4-dihydrospiro[chromene-2,1′-cyclobutan]-4-yl)amino)-1-hydroxyethyl)-3-buten-1-yl)-2-methoxyacetamide], for which the values for the IC50 in data set [1] and in data set [2] were 78 nM and 369 nM, respectively. The IC50 at 10 min in data set [3] was determined as 1000 nM. In data set [4], this molecule came in with an HLM of 284 µL/min/mg. Further, the RLM in data set [5] was 232 µL/min/mg.
On the same counts, the results for `C=CC[C@H](NC(=O)COC)[C@H](O)CN[C@H]1CC2(CCC2)Oc2c1cc(CC(C)(C)C)nc2Nc1ccncc1` [compound 232] are 127 nM, 21 nM, 700 nM, 551 µL/min/mg and 174 µL/min/mg.
The matching figures for `C=CC[C@H](NC(=O)COC)[C@H](O)CN[C@H]1CC2(CCC2)Oc2c1cc(CC(C)(C)C)nc2Nc1ccc2c(c1)OCO2` [compound 233, N-((1S)-1-((1R)-2-(((4′S)-8′-(1,3-benzodioxol-5-ylamino)-6′-(2,2-dimethylpropyl)-3′,4′-dihydrospiro[cyclobutane-1,2′-pyrano[2,3-c]pyridin]-4′-yl)amino)-1-hydroxyethyl)-3-buten-1-yl)-2-methoxyacetamide]: 16 nM, 388 nM, 1300 nM, 151 µL/min/mg and 197 µL/min/mg.
In the case of `C=CC[C@H](NC(=O)COC)[C@H](O)CN[C@H]1CC2(CCC2)Oc2ncc(C(F)(F)C(C)(C)C)cc21` [compound 234], the values for the IC50 in data set [1] and in data set [2] were 2410 nM and 5630 nM, respectively. For the same molecule, the IC50 at 10 min in data set [3] amounted to 4100 nM. Also, the HLM in data set [4] is 299 µL/min/mg. This molecule also had an RLM in data set [5] of 173 µL/min/mg.
On the same counts, the results for `C=CC[C@H](NC(C)=O)[C@H](O)CN[C@H]1CC2(CCC2)Oc2c1cc(CC(C)(C)C)nc2Nc1nccs1` [compound 235] are 31 nM, 121 nM, 2700 nM, 244 µL/min/mg and 100 µL/min/mg.
On the same counts, the results for `C=CC[C@H](NC(=O)COC)[C@H](O)CN[C@H]1CC2(CCC2)Oc2c1cc(CC(C)(C)C)nc2Nc1nccs1` [compound 236] are 54 nM, 366 nM, 1200 nM, 614 µL/min/mg and 119 µL/min/mg.

The values are drawn from patent publication US8633315B2, “Substituted hydroxyethyl amine compounds as beta-secretase modulators and methods of use” (Amgen Inc., priority 2007, dated 2014).
